Experimental data published in patent US20230045421A1 (priority 2018, published 2023).
Like-named read-outs stand apart in the source and are kept apart here.

Tested on: HBV rcDNA
Assay: HepDE19 assay with bDNA quantitation of HBV rcDNA
Format: cell-based, hepatitis B virus
In short: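 Compounds, top concentration 25 μM in 8-point duplicate series, were applied to Tet-free HepDE19 cultures for 7 days. Branched-DNA quantitation of HBV rcDNA against untreated wells gave EC50 and EC90 by 4-parameter fit. Viability (CC50) came from ATP luminescence on parallel plates incubated 4 days.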

[1] = HepDE19 assay, inhibition of formation of rcDNA, read-out: DE-19bDNA EC50
[2] = Hepatitis B virus, HepDE19, HepDE19 assay, inhibition of formation of rcDNA, read-out: DE-19bDNA EC50
[3] = Hepatitis B virus, HepDE19, HepDE19 assay, inhibition of formation of relaxed circular DNA (rcDNA), bDNA quantitation, read-out: DE-19bDNA EC50
[4] = HepDE19 assay, inhibition of formation of relaxed circular DNA (rcDNA), bDNA quantitation, read-out: DE-19bDNA EC50

With `CC(c1c[nH]c(=O)c2ccccc12)N(CC1COC(C)(C)OC1)C(=O)Nc1ccc(F)c(Cl)c1` (single isomer, unassigned) [Compound 272, 3-(3-Chloro-4-fluorophenyl)-1-((2,2-dimethyl-1,3-dioxan-5-yl)methyl)-1-(1-(1-oxo-1,2-dihydroisoquinolin-4-yl)ethyl)urea] the EC50 [1] was 1.8 µM.

`CC(c1c[nH]c(=O)c2ccccc12)N(CC1COC(C)(C)OC1)C(=O)Nc1ccc(F)c(Cl)c1` (single isomer, unassigned) [Compound 273, 3-(3-Chloro-4-fluorophenyl)-1-((2,2-dimethyl-1,3-dioxan-5-yl)methyl)-1-(1-(1-oxo-1,2-dihydroisoquinolin-4-yl)ethyl)urea] showed an EC50 [1] of 0.17 µM.

`CC(c1c[nH]c(=O)c2ccccc12)N(CC1COC(C)(C)OC1)C(=O)Nc1ccc(F)cc1` (single isomer, unassigned) [Compound 274, 3-(4-Fluorophenyl)-1-((2,2-dimethyl-1,3-dioxan-5-yl)methyl)-1-(1-(1-oxo-1,2-dihydroisoquinolin-4-yl)ethyl)urea] showed an EC50 [2] of 1.8 µM.

`CC(c1c[nH]c(=O)c2ccccc12)N(CC1COC(C)(C)OC1)C(=O)Nc1ccccc1` (single isomer, unassigned) [Compound 275, 1-((2,2-Dimethyl-1,3-dioxan-5-yl)methyl)-1-(1-(1-oxo-1,2-dihydroisoquinolin-4-yl)ethyl)-3-phenylurea] gave an EC50 (Hepatitis B virus, HepDE19, read-out: DE-19bDNA EC50 (μM), HepDE19 assay, inhibition of formation of rcDNA) of 0.83 µM.

`CC(c1cn(Cc2c[nH]nn2)c(=O)c2ccccc12)N(C)C(=O)Nc1ccc(F)c(Cl)c1` (single isomer, unassigned) [Compound 276, 1-(1-(2-((1H-1,2,3-Triazol-4-yl)methyl)-1-oxo-1,2-dihydroisoquinolin-4-yl)ethyl)-3-(3-chloro-4-fluorophenyl)-1-methylurea] gave an EC50 [1] of 2.7 µM.

With `CC(c1cn(Cc2c[nH]nn2)c(=O)c2ccccc12)N(C)C(=O)Nc1ccc(F)c(Cl)c1` (single isomer, unassigned) [Compound 277, 1-(1-(2-((1H-1,2,3-Triazol-4-yl)methyl)-1-oxo-1,2-dihydroisoquinolin-4-yl)ethyl)-3-(3-chloro-4-fluorophenyl)-1-methylurea] the EC50 [1] was 0.79 µM.

In the case of `CC(c1c[nH]c(=O)c2cc(F)c(F)cc12)N(C)C(=O)Nc1ccc(F)c(Cl)c1` (single isomer, unassigned) [Compound 278, 3-(3-Chloro-4-fluorophenyl)-1-(1-(6,7-difluoro-1-oxo-1,2-dihydroisoquinolin-4-yl)ethyl)-1-methylurea], the EC50 [2] is reported as 1 µM.

With `CC(c1c[nH]c(=O)c2cc(F)c(F)cc12)N(C)C(=O)Nc1ccc(F)c(Cl)c1` (single isomer, unassigned) [Compound 279, 3-(3-Chloro-4-fluorophenyl)-1-(1-(6,7-difluoro-1-oxo-1,2-dihydroisoquinolin-4-yl)ethyl)-1-methylurea] the EC50 (read-out: DE-19bDNA EC50, HepDE19 assay, inhibition of formation of rcDNA) was 0.007 µM.

With `CC(C)CN(C(=O)Nc1ccc(F)c(Cl)c1)C(C)c1c[nH]c(=O)c2cc(F)c(F)cc12` (single isomer, unassigned) [Compound 280, 3-(3-Chloro-4-fluorophenyl)-1-(1-(6,7-difluoro-1-oxo-1,2-dihydroisoquinolin-4-yl)ethyl)-1-isobutylurea] the EC50 [2] was 0.21 µM.

`CC(C)CN(C(=O)Nc1ccc(F)c(Cl)c1)C(C)c1c[nH]c(=O)c2cc(F)c(F)cc12` (single isomer, unassigned) [Compound 281, 3-(3-Chloro-4-fluorophenyl)-1-(1-(6,7-difluoro-1-oxo-1,2-dihydroisoquinolin-4-yl)ethyl)-1-isobutylurea] gave an EC50 [3] of 0.002 µM.

For `CC(c1c[nH]c(=O)c2ccc(F)cc12)N(CC1COC(C)(C)OC1)C(=O)Nc1ccc(F)c(Cl)c1` (single isomer, unassigned) [Compound 282, 3-(3-Chloro-4-fluorophenyl)-1-((2,2-dimethyl-1,3-dioxan-5-yl)methyl)-1-(1-(6-fluoro-1-oxo-1,2-dihydroisoquinolin-4-yl)ethyl)urea], the EC50 [4] was 4 µM.

Work on `CC(c1c[nH]c(=O)c2ccc(F)cc12)N(CC1COC(C)(C)OC1)C(=O)Nc1ccc(F)c(Cl)c1` (single isomer, unassigned) [Compound 283, 3-(3-Chloro-4-fluorophenyl)-1-((2,2-dimethyl-1,3-dioxan-5-yl)methyl)-1-(1-(6-fluoro-1-oxo-1,2-dihydroisoquinolin-4-yl)ethyl)urea] yielded an EC50 [4] of 0.043 µM.

`CC(c1c[nH]c(=O)c2ccccc12)N(CC(CO)CO)C(=O)Nc1ccc(F)c(Cl)c1` (single isomer, unassigned) [Compound 284, 3-(3-Chloro-4-fluorophenyl)-1-(3-hydroxy-2-(hydroxymethyl)propyl)-1-(1-(1-oxo-1,2-dihydroisoquinolin-4-yl)ethyl)urea] gave an EC50 [3] of 0.092 µM.

Molecule `CC(c1c[nH]c(=O)c2cc(F)c(F)cc12)N(C)C(=O)Nc1ccc(F)cc1` (single isomer, unassigned) [Compound 285, 1-(1-(6,7-Difluoro-1-oxo-1,2-dihydroisoquinolin-4-yl)ethyl)-3-(4-fluorophenyl)-1-methylurea] has an EC50 [4] of 4.3 µM.

Work on `CC(c1c[nH]c(=O)c2cc(F)c(F)cc12)N(C)C(=O)Nc1ccc(F)cc1` (single isomer, unassigned) [Compound 286, 1-(1-(6,7-Difluoro-1-oxo-1,2-dihydroisoquinolin-4-yl)ethyl)-3-(4-fluorophenyl)-1-methylurea] yielded an EC50 [4] of 0.02 µM.

`CC(C)CN(C(=O)Nc1ccc(F)cc1)C(C)c1c[nH]c(=O)c2cc(F)c(F)cc12` (single isomer, unassigned) [Compound 287, 1-(1-(6,7-Difluoro-1-oxo-1,2-dihydroisoquinolin-4-yl)ethyl)-3-(4-fluorophenyl)-1-isobutylurea] showed an EC50 [4] of 1.5 µM.

Molecule `CC(C)CN(C(=O)Nc1ccc(F)cc1)C(C)c1c[nH]c(=O)c2cc(F)c(F)cc12` (single isomer, unassigned) [Compound 288, 1-(1-(6,7-Difluoro-1-oxo-1,2-dihydroisoquinolin-4-yl)ethyl)-3-(4-fluorophenyl)-1-isobutylurea] has an EC50 [4] of 0.004 µM.

With `CC(c1c[nH]c(=O)c2cc(F)c(F)cc12)N(CCCO)C(=O)Nc1ccc(F)c(Cl)c1` (single isomer, unassigned) [Compound 289, 3-(3-Chloro-4-fluorophenyl)-1-(1-(6,7-difluoro-1-oxo-1,2-dihydroisoquinolin-4-yl)ethyl)-1-(3-hydroxypropyl)urea] the EC50 [4] was 0.37 µM.

With `CC(c1c[nH]c(=O)c2cc(F)c(F)cc12)N(CCCO)C(=O)Nc1ccc(F)c(Cl)c1` (single isomer, unassigned) [Compound 290, 3-(3-Chloro-4-fluorophenyl)-1-(1-(6,7-difluoro-1-oxo-1,2-dihydroisoquinolin-4-yl)ethyl)-1-(3-hydroxypropyl)urea] the EC50 [4] was 0.002 µM.

`CC(c1c[nH]c(=O)c2cc(F)c(F)cc12)N(CCCO)C(=O)Nc1ccc(F)cc1` (single isomer, unassigned) [Compound 291, 1-(1-(6,7-Difluoro-1-oxo-1,2-dihydroisoquinolin-4-yl)ethyl)-3-(4-fluorophenyl)-1-(3-hydroxypropyl) urea] was tested, and the EC50 [4] was 4.6 µM.

For `CC(c1c[nH]c(=O)c2cc(F)c(F)cc12)N(CCCO)C(=O)Nc1ccc(F)cc1` (single isomer, unassigned) [Compound 292, 1-(1-(6,7-Difluoro-1-oxo-1,2-dihydroisoquinolin-4-yl)ethyl)-3-(4-fluorophenyl)-1-(3-hydroxypropyl) urea], the EC50 [4] was 0.01 µM.

For `CC(c1c[nH]c(=O)c2ccc(F)cc12)N(CC(CO)CO)C(=O)Nc1ccc(F)c(Cl)c1` (single isomer, unassigned) [Compound 295, 3-(3-Chloro-4-fluorophenyl)-1-(1-(6-fluoro-1-oxo-1,2-dihydroisoquinolin-4-yl)ethyl)-1-(3-hydroxy-2-(hydroxymethyl)propyl)urea], the EC50 [4] was 1.9 µM.

With `CC(c1c[nH]c(=O)c2ccc(F)cc12)N(CC(CO)CO)C(=O)Nc1ccc(F)c(Cl)c1` (single isomer, unassigned) [Compound 296, 3-(3-Chloro-4-fluorophenyl)-1-(1-(6-fluoro-1-oxo-1,2-dihydroisoquinolin-4-yl)ethyl)-1-(3-hydroxy-2-(hydroxymethyl)propyl)urea] the EC50 [4] was 0.04 µM.

`CNC(=O)N(C)C(C)c1c[nH]c(=O)c2ccccc12` (single isomer, unassigned) [Compound 298, 1,3-Dimethyl-1-(1-(1-oxo-1,2-dihydroisoquinolin-4-yl)ethyl)urea] showed an EC50 [3] of 24 µM.

`CC(c1c[nH]c(=O)c2ccccc12)N(C)C(=O)NC1CCCC1` (single isomer, unassigned) [Compound 299, 3-Cyclopentyl-1-methyl-1-(1-(1-oxo-1,2-dihydroisoquinolin-4-yl)ethyl)urea] gave an EC50 [3] of 8.6 µM.

`CC(c1cn(C)c(=O)c2cc(F)ccc12)N(C)C(=O)Nc1ccc(F)c(Cl)c1` (single isomer, unassigned) [Compound 302, 3-(3-Chloro-4-fluorophenyl)-1-(1-(7-fluoro-2-methyl-1-oxo-1,2-dihydroisoquinolin-4-yl)ethyl)-1-methylurea] gave an EC50 [4] of 3.3 µM.

For `CC(c1cn(C)c(=O)c2cc(F)ccc12)N(C)C(=O)Nc1ccc(F)c(Cl)c1` (single isomer, unassigned) [Compound 303, 3-(3-Chloro-4-fluorophenyl)-1-(1-(7-fluoro-2-methyl-1-oxo-1,2-dihydroisoquinolin-4-yl)ethyl)-1-methylurea], the EC50 [4] was 0.02 µM.

`CC(c1c[nH]c(=O)c2ccccc12)N(Cc1ccccn1)C(=O)Nc1ccc(F)c(Cl)c1` (single isomer, unassigned) [Compound 304, 3-(3-Chloro-4-fluorophenyl)-1-(1-(1-oxo-1,2-dihydroisoquinolin-4-yl)ethyl)-1-(pyridin-2-ylmethyl) urea] gave an EC50 [4] of 9.6 µM.
